Experimental data taken from patent US9289400B2, “D3 dopamine receptor agonists to treat dyskinesia in parkinson's disease” (priority 2010, dated 2016).
“Also recorded” adds a separate entry of the source. Where two headings read alike, the source gives them in different places. Blank lines part the entries; values can stand above or below the compound they belong to.

Columns and labels:
D4.2 dopamine receptor [1] = target: T1, D4.2 dopamine receptor (Homo sapiens (Human), UniProt P21917, DEL265-296); details: Kuzhikandathil & Bartoszyk, 2006; cited from earlier work
D2L dopamine receptor [2] = target: T2, D2L dopamine receptor (Homo sapiens (Human), UniProt P14416); details: Kuzhikandathil & Bartoszyk, 2006; cited from earlier work
D2L dopamine receptor [3] = target: T2, D2L dopamine receptor; details: Kuzhikandathil & Bartoszyk, 2006; cited from earlier work; remark: listed apart in the source
D4.2 dopamine receptor [4] = target: T1, D4.2 dopamine receptor; details: Kuzhikandathil & Bartoszyk, 2006; cited from earlier work; remark: listed apart in the source
D2S dopamine receptor = D2S dopamine receptor (Homo sapiens (Human), UniProt P14416); experiment: Tolerance and SRT at D2S dopamine receptors; format: cell-based
[5] = system: intrastriatal 6-OHDA lesioned rats; experiment: Forelimb stepping test in intrastriatal 6-OHDA lesioned rats; details: levodopa 2, 4 and 6 mg/kg with benserazide
Balb/c mice = experiment: Locomotor activity (open field, TruScan) in Balb/c mice
D4.2 = details: Scheideler et al., 1997; cited from earlier work
[6] = system: intrastriatal 6-OHDA lesioned rats; experiment: Levodopa-induced dyskinesia (AIMs score) in intrastriatal 6-OHDA lesioned rats; format: in vivo, rat; details: PD128907 0.1 mg/kg sc; PBZI 17 mg/kg sc; hydrochloride
Protocol: In particular, rats in which unilateral intrastriatal lesion is induced by injection of 6-OHDA (7 μg) at three different sites in the ventrolateral striatum are used. The coordinates for the three injection sites are, in mm: injection site 1: AP: +1.0; ML: −3.0; DV: −5.0; injection site 2: AP: −0.1; ML: −3.7; DV: −5.0; injection site 3: AP: −1.2; ML: −4.5; DV: −5.0. Anterior-posterior (AP) and mediolateral (ML) coordinates are from bregma. The dorso-ventral (DV) coordinates are from dura. The toothbar location is 0.
Seven and half weeks after the lesion, chronic levodopa treatment (6 mg/kg, single dose per day given with 15 mg/kg benserazide) is initiated. Stepping test and AIMs scores are determined on day 1, 8, 10, 17 and 24 after the initiation of chronic levodopa treatment. […] AIMs are scored using a rating scale based on frequency and severity of the dyskinetic symptoms. It should be noted that the rank order of the various AIMs components in terms of frequency and severity in the rat model is: limb>orolingual=axial>>locomotor. This lesion model has been used to test the effect of PBZI on LID (Example 3).
FIG. 13A illustrates the effect of control, PD128907 (a tolerance inducing D2/D3 agonist) and PBZI (a non tolerance inducing D3/D3 agonist) on the total AIMs score (includes locomotor, axial, limb and orolingual) over time of a day 17 (chronic L-DOPA phase) lesioned animal.

D3 dopamine receptor [7] = target: T3, D3 dopamine receptor (Homo sapiens (Human), UniProt P35462); details: cited from earlier work
Target sequence in this assay (P35462 whole entry): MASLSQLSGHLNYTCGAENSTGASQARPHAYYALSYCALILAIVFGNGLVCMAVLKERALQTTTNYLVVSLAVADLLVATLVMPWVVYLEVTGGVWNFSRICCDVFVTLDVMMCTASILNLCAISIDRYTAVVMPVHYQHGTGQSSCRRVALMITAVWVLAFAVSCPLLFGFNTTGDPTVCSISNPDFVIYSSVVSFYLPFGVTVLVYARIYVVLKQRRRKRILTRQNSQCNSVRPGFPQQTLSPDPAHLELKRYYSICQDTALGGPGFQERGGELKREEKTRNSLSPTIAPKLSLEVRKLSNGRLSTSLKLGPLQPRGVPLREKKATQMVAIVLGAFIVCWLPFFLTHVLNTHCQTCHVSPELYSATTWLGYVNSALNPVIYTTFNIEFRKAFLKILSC

D3 dopamine receptor [8] = target: T3, D3 dopamine receptor; experiment: D3 receptor tolerance and SRT: GIRK response to repeated agonist application in AtT-20 cells; format: cell-based; details: AtT-20 cells expressing human D3, 100-300 nM agonist, repeated ~60 s applications
Protocol: To determine whether a compound abolishes the D3 receptor tolerance and SRT, the D3 receptor-activated GIRK response to two consecutive treatments of the lead compound is measured. […] Drug solutions were delivered to cells via a multi-barreled micropipette array. The current responses were normalized to the cell capacitance, to account for variation in cell size.
To identify agonists that might modulate D3 receptor tolerance and SRT properties, ten distinct agonists were screened for their ability to induce tolerance and SRT, using the D3 receptor-GIRK channel signaling pathway as an assay.
Target sequence in this assay (P35462 other isoform, or with tags, fused parts or gaps): as the sequence (P35462 whole entry) above, with G9S counted along it

D2S = D2S (Homo sapiens (Human), UniProt P14416); details: Scheideler et al., 1997; cited from earlier work
D3 dopamine receptor [9] = target: T3, D3 dopamine receptor; experiment: GIRK channel activation, whole cell voltage clamp, AtT-20 cells stably expressing D3; format: cell-based; details: D2/D3 antagonist eticlopride (100 nM)
Protocol: The activation of the GIRK channels was measured electrophysiologically using whole cell voltage clamp recording (Kuzhikandathil et al., 2004, Mol. Cell. Neurosci. 26:144-155). […]. The adenylyl cyclase inhibition was determined using a commercially available ELISA assay (Westrich & Kuzhikandathil, 2007, Biochim. Biophys. Acta-Mol. Cell. Res. 1773:1747-1758).
. In the initial screen, the ability of 300 nM lead compound to activate G-protein coupled inward rectifier potassium (GIRK) channels (FIG. 1) is measured using whole cell voltage clamp recording. The protocol has been previously used for performing whole cell voltage clamp and measuring agonist-induced GIRK response. […]. The EC50 values for each receptor subtype is determined by fitting the data points using the Hill equation.
AtT-20 mouse pituitary cells were grown in Ham's F10 medium with 5% FBS, 10% heat-inactivated horse serum, 2 mM glutamine and 50 μg/ml gentamicin (Invitrogen, Carlsbad, Calif.). AtT-20 cells stabling expressing the human D2S, D2L, D3, and D4.2 and receptor were maintained in the above F10 culture media supplemented with 500 μg/ml G418 (Invitrogen). For electrophysiological characterization, cells were plated onto glass coverslips coated with 40 μg/ml poly L-lysine (Sigma-Aldrich). […]. Physiol. 115:697-706; Kuzhikandathil et al., 1998, Mol. Cell. Neurosci. 12:390-402; Kuzhikandathil & Bartoszyk, 2006, Neuropharm. 51:873-884; Westrich & Kuzhikandathil, 2007, Biochim. Biophys. Acta-MCR 1773:1747-1758; Kuzhikandathil et al., 2004, Mol. Cell. Neurosci. 26:144-155; Westrich et al., 2010, Biochem. Pharmacol. 79:897-907).
Agonist-activated currents were measured by the whole-cell patch clamp technique in voltage clamp and current clamp mode as described previously (Kuzhikandathil & Oxford, 2000, J. Gen. Physiol. 115:697-706; Kuzhikandathil et al., 1998, Mol. Cell. Neurosci. 12:390-402; Kuzhikandathil & Bartoszyk, 2006, Neuropharm. 51:873-884; Westrich & Kuzhikandathil, 2007, Biochim. Biophys. Acta-MCR 1773:1747-1758; Kuzhikandathil et al., 2004, Mol. Cell. Neurosci. 26:144-155; Westrich et al., 2010, Biochem. Pharmacol. 79:897-907). Drug solutions were delivered to cells via a multi-barreled micropipette array. The current responses were normalized to the cell capacitance, to account for variation in cell size.
To compare the functional effects of the new class of D3 receptor agonists, PBZI (Table 2) and ES609 (Table 3) were tested on AtT-20 cells stably expressing human D3, D2S, D2L or D4.2. […]. The EC50 values of PBZI and ES609 for inhibiting adenylyl cyclase and activating GIRK channels were in the range of 0.2 nM to 30 nM for D3 receptors. […]. […]
Target sequence in this assay (P35462 other isoform, or with tags, fused parts or gaps): as the sequence (P35462 whole entry) above, with G9S counted along it

T2 sequence (P14416 whole entry): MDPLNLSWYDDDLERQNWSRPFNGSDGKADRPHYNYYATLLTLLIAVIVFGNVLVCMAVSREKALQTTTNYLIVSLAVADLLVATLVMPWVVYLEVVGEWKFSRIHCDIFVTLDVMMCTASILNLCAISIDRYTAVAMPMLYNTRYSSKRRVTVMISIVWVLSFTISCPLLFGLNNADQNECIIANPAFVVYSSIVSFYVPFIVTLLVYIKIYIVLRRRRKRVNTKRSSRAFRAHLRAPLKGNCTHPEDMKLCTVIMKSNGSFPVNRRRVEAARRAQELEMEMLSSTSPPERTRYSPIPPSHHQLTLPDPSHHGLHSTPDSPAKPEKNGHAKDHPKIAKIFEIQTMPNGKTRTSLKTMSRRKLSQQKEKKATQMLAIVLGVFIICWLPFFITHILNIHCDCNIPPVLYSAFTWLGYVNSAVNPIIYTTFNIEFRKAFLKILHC
T1 sequence (P21917 other isoform, or with tags, fused parts or gaps del 265-296): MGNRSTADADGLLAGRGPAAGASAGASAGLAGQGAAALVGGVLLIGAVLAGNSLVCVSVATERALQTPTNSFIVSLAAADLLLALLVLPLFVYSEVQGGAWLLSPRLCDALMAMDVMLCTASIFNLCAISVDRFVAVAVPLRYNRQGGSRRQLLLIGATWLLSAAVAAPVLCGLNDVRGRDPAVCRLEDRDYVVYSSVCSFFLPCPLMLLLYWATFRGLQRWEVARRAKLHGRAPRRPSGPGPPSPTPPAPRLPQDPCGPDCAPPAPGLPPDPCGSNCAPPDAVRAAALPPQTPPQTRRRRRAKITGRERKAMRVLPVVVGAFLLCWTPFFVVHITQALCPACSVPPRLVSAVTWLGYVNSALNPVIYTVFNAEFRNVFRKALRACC
D2S, sequence (P14416 other isoform, or with tags, fused parts or gaps): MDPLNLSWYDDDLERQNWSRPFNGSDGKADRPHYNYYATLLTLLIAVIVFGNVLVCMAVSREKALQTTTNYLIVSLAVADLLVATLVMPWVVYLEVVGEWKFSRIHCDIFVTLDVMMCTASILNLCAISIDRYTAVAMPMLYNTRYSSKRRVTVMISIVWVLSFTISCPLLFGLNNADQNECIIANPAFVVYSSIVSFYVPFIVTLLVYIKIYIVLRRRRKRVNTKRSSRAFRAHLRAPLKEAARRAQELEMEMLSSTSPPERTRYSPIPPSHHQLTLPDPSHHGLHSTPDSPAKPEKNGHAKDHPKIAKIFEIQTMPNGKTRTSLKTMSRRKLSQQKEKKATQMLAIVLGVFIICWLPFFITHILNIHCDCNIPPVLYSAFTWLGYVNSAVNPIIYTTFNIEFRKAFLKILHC
D2S dopamine receptor, sequence (P14416 other isoform, or with tags, fused parts or gaps): as above

SMILES: Fc1ccc(-c2cncc(CNC[C@H]3CCc4ccccc4O3)c2)cc1 [sarizotan, 1-[(2R)-3,4-dihydro-2H-chromen-2-yl]-N-([5-(4-fluorophenyl)pyridin-3-yl]methyl)methanamine]
GIRK channel signaling pathway: agonist type (D4.2 dopamine receptor [1]): partial agonist
GIRK channel signaling pathway: agonist type (D2L dopamine receptor [2]): partial agonist
adenylyl cyclase pathway: agonist type (D2L dopamine receptor [3]): full agonist
adenylyl cyclase pathway: agonist type (D4.2 dopamine receptor [4]): full agonist
tolerance and SRT properties at D2S (D2S dopamine receptor): induces tolerance and slow response termination (SRT) properties

SMILES: N[C@@H](Cc1ccc(O)c(O)c1)C(=O)O [levodopa, L-3,4-dihydroxyphenylalanine]
forelimb bradykinesia (forelimb stepping test) [5]: dose dependent improvement in forelimb bradykinesia

SMILES: CCCN1CCO[C@@H]2c3cc(O)ccc3OC[C@H]21.Cl [PD128907, (4aR,10bR)-3,4-a,4,10b-tetrahydro-4-propyl-2H,5H-[1]benzopyrano-[4,3-b]-1,4-oxazin-9-ol hydrochloride]
duration of hypoactivity post-injection (Balb/c mice; PBZI 10 mg/kg sc, PD128907 0.4 mg/kg sc): 40 min
duration of hypoactivity post-injection (Balb/c mice; PD128907 0.05 mg/kg sc): 20 min
time by which locomotor activity returns to control saline levels (Balb/c mice; post-injection, PBZI 10 mg/kg sc, PD128907 0.4 mg/kg sc): ≤ 120 min
dose at which biphasic locomotor effect was observed (Balb/c mice; sc): ≥ 0.05 mg/kg
locomotor response (Balb/c mice; sc, PBZI 10 mg/kg, PD128907 0.05-0.4 mg/kg, normalized to saline, hydrochloride): induces both hypoactivity and hyperactivity; also recorded: biphasic locomotor response; also recorded: biphasic effect; also recorded: an initial hypoactivity (horizontal arrows) that is followed by hyperactivity
Ki (D4.2): 114 nM
dyskinesia induced by the compound itself, before levodopa administration [6]: in of itself induced dyskinesia; also recorded: increased AIMs score even before the levodopa was administered
Ki (D3 dopamine receptor [7]; D3, Scheideler et al., 1997, read-out: Ki): 0.4 nM
Ki (D3 dopamine receptor [7]; source not stated, read-out: D3 dopamine receptor binding affinity Ki): 2.3 nM
D3 receptor tolerance and SRT properties (agonist-induced GIRK response) (D3 dopamine receptor [8]; hydrochloride): elicited tolerance and SRT; also recorded: induced enhanced tolerance; also recorded: induces severe tolerance and SRT
D3 receptor tolerance and SRT properties (agonist-induced GIRK response) (D3 dopamine receptor [8]; listed as PD 128907, hydrochloride): tolerance is elicited
Ki (D2S): 202 nM

specificity of agonist effect (eticlopride pretreatment / parental cells) (D3 dopamine receptor [9]): specific for D3 receptors
SMILES: C#CC1=CCC(N(CCC)CCC)CC1 (stereo not drawn) [FAUC73, (4-ethynylcyclohex-3-enyl) dipropylamine]
D3 receptor tolerance and SRT properties (agonist-induced GIRK response) (D3 dopamine receptor [8]): abolished the tolerance property; also recorded: abolished both tolerance and SRT properties; also recorded: do not show D3 receptor tolerance and SRT
D3 receptor tolerance and SRT properties (agonist-induced GIRK response) (D3 dopamine receptor [8]; listed as FAUC 73): completely abolished the receptors' tolerance and SRT properties
